# Article PMC8546428, “Convergent olfactory trace amine-associated receptors detect biogenic polyamines with distinct motifs via a conserved binding site” (The Journal of Biological Chemistry, 2021)
# Numbering of substitutions follows the chain as printed.
# Key:
# [1] = target: T1, mTAAR9 Y6.51W (Mus musculus, UniProt Q5QD04, Y274W); test: CRE-luciferase reporter assay, mTAAR9 mutant in Hana3A; assay type: cell-based; conditions: read-out: EC50 (mean ± S.D., n = 3)
# T1 construct: expressed in transfected cells; host or cells: Hana3A (HEK293-derived)
# T1 sequence (Q5QD04 1-348 Y274W): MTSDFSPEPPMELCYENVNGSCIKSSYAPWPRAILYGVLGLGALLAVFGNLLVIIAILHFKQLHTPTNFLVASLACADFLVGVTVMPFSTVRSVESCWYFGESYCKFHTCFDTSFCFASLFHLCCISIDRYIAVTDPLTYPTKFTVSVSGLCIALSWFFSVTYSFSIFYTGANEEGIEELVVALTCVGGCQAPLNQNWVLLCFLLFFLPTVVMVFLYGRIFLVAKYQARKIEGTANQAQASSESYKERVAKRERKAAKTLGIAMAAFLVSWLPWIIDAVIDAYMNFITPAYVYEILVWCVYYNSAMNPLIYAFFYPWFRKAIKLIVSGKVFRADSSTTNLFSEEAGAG
# [2] = target: T2, mTAAR8c (Mus musculus, UniProt Q5QD05); test: CRE-luciferase reporter assay in Hana3A, mouse olfactory TAARs; assay type: cell-based; conditions: ligand 500 μM, Fig. 1D
# T2 construct: expressed in transfected cells; host or cells: Hana3A (HEK293-derived)
# T2 sequence (Q5QD05 whole entry): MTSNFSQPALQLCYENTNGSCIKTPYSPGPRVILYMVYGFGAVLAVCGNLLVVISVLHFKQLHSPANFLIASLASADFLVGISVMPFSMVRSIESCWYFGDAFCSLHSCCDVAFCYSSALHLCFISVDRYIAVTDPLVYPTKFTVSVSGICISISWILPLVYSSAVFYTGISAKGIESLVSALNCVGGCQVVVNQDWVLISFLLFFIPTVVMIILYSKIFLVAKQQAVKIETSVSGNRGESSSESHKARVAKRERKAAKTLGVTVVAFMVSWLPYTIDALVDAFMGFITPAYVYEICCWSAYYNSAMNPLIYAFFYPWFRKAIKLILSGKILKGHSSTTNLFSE
# Procedure: (§1) Mammalian TAAR9 plasmids were transfected into Hana3A cells along with a cAMP-dependent luciferase reporter plasmid (CRE-Luc). Transfected cells were incubated with tested ligands, and luciferase activity was quantified with a […] substrate as a reporter for Golf-mediated TAAR activation. Luciferase activity was indicated by the luminescence value and normalized as a fold-increase over the response to the vehicle stimuli (mean ± S.D., n = 3). […] B, Hana3A cells expressing mouse, rat, human, cat, hamster, and rabbit TAAR9 were incubated with either vehicle or tested ligands (1 mM) and assayed for reporter activity. C, concentration-dependent luciferase activity in Hana3A cells expressing mouse, rat, and cat TAAR9 receptors stimulated with cadaverine, spermidine, and spermine.
# (§2) We then sought to determine if other mouse olfactory TAARs are activated by the mTAAR9 ligands.
# (§3) The firefly luciferase and renilla luciferase activity was measured with a BioTek microplate reader following manufacturer’s instructions.
# [3] = target: T3, mTAAR9 W7.40A (Mus musculus, UniProt Q5QD04, W298A); test: CRE-luciferase reporter assay, mTAAR9 mutant in Hana3A; assay type: cell-based; conditions: read-out: EC50 (mean ± S.D., n = 3)
# T3 construct: expressed in transfected cells; host or cells: Hana3A (HEK293-derived)
# T3 sequence (Q5QD04 1-348 W298A): T1 sequence (Q5QD04 1-348 Y274W) with W274Y, W298A
# [4] = target: T4, mTAAR9 W7.40Y (Mus musculus, UniProt Q5QD04, W298Y); test: as above; assay type: cell-based; conditions: read-out: EC50 (mean ± S.D., n = 3)
# T4 construct: expressed in transfected cells; host or cells: Hana3A (HEK293-derived)
# T4 sequence (Q5QD04 whole entry W298Y): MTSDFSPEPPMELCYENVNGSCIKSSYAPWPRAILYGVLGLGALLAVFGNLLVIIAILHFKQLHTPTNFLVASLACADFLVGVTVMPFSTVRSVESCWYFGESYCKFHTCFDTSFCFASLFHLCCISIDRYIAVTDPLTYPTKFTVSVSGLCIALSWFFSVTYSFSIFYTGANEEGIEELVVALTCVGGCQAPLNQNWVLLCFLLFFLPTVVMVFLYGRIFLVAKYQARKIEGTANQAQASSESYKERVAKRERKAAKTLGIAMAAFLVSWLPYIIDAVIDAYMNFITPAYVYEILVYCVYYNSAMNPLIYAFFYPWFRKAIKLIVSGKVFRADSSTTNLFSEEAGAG
# [5] = target: T5, Rat TAAR9 (Rattus norvegicus, UniProt Q923Y6); test: CRE-luciferase reporter assay in Hana3A; assay type: cell-based; conditions: rat TAAR9, ligand 1 mM, Fig. 1B
# T5 construct: expressed in transfected cells; host or cells: Hana3A (HEK293-derived)
# T5 sequence (Q923Y6 1-338): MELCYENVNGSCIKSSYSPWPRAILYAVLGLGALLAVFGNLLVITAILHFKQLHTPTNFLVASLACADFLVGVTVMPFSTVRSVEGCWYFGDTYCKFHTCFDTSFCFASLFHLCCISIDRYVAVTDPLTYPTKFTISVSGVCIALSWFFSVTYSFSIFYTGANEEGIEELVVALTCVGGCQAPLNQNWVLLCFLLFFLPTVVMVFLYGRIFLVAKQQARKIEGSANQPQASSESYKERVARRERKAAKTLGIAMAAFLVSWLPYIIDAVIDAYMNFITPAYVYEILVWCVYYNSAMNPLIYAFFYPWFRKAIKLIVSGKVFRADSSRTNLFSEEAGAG
# Procedure: We examined the response of TAAR9s from rat, human, hamster, and rabbit to the stimulation of 1 mM amines using a well-established cAMP response element (CRE)-driven luciferase reporter assay based on Golf-mediated cAMP signal transduction ([5], [24]). In addition to the four mTAAR9 ligands, we included putrescine, which is also a polyamine and precursor of spermine/spermidine biosynthesis.
# as §1, §3
# [6] = target: T6, WT mTAAR9 (Mus musculus, UniProt Q5QD04); test: CRE-luciferase reporter assay, wild-type mTAAR9 in Hana3A; assay type: cell-based; conditions: WT mTAAR9, Hana3A, CRE-luciferase; read-out: EC50 (mean ± S.D., n = 3)
# T6 construct: Rho-tag (first 20 amino acids of bovine rhodopsin) (N); expressed in transfected cells; host or cells: Hana3A (HEK293-derived)
# T6 sequence (Q5QD04 1-348): T1 sequence (Q5QD04 1-348 Y274W) with W274Y
# Procedure: as §1, §3
# [7] = target: T7, mTAAR9 E7.36D (Mus musculus, UniProt Q5QD04, E294D); test: CRE-luciferase reporter assay, mTAAR9 mutant in Hana3A; assay type: cell-based; conditions: read-out: EC50 (mean ± S.D., n = 3)
# T7 construct: expressed in transfected cells; host or cells: Hana3A (HEK293-derived)
# T7 sequence (Q5QD04 1-348 E294D): T1 sequence (Q5QD04 1-348 Y274W) with W274Y, E294D
# [8] = target: T8, mTAAR9 W7.40F (Mus musculus, UniProt Q5QD04, W298F); test: as above; assay type: cell-based; conditions: read-out: EC50 (mean ± S.D., n = 3)
# T8 construct: expressed in transfected cells; host or cells: Hana3A (HEK293-derived)
# T8 sequence (Q5QD04 1-348 W298F): T1 sequence (Q5QD04 1-348 Y274W) with W274Y, W298F
# [9] = target: mTAAR5 (Mus musculus, UniProt Q5QD14); conditions: mTAAR5, ligand 500 μM, Fig. 1D
# Sequence of mTAAR5 (Q5QD14 whole entry): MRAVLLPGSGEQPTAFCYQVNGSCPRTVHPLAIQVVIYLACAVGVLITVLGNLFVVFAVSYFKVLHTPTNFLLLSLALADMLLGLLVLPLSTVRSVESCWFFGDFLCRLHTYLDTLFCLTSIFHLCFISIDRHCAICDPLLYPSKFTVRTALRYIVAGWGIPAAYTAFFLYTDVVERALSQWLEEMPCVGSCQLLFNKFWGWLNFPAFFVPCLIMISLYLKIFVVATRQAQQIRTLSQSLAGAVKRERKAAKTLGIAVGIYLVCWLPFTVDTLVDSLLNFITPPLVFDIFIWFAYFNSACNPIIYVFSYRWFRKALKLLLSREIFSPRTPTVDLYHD
# Procedure: as §1, §2, §3
# [10] = target: mTAAR7f (Mus musculus, UniProt Q5QD08); conditions: ligand 500 μM, Fig. 1D
# Sequence of mTAAR7f (Q5QD08 whole entry): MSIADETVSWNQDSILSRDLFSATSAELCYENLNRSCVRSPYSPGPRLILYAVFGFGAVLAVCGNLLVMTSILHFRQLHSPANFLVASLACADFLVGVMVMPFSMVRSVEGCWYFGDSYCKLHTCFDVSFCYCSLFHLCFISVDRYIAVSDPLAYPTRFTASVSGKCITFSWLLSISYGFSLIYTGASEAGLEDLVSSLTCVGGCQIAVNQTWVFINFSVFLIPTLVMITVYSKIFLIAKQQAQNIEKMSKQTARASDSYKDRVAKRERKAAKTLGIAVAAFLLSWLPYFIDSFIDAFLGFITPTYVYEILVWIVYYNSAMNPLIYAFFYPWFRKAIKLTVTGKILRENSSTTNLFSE
# Procedure: as §1, §2, §3
SMILES,EC50 [1],reporter activity [2],EC50 [3],EC50 [4],reporter activity (activation of TAAR9) [5],EC50 [6],EC50 [7],EC50 [8],reporter activity [9],reporter activity [10]
NCCCCNCCCN [spermidine],> 1000 µM,modest activity,68 ± 48 µM,2 ± 0.5 µM,maximum responses,43 ± 7 µM,142 ± 43 µM,9 ± 7 µM,–,–
CCN(CC)CC [triethylamine],355 ± 80 µM,moderate activities,> 1000 µM,–,–,251 ± 82 µM,> 1000 µM,36 ± 16 µM,moderate activities,robust responses
